Measured values published in US10822317B2, “Methods and compositions for wound healing” (QBiotics Limited, priority 2013, dated 2020).

Columns and labels:
[1] = system: TGF-β1-stimulated dermal fibroblasts; test: Differentiation of adult dermal fibroblasts into myofibroblasts (α-SMA expression); type: cell-based, human
Protocol: The effects of Compounds […] and 37 on dermal fibroblast differentiation to myofibroblasts was examined by the extent of α-SMA expression by TGF-βi-stimulated dermal fibroblasts.
Following trypsinization, fibroblasts were seeded in 8-well, Permanoxchamber slides (VWR International) in DMEM medium, containing antibiotics, 2 mM L-glutamine and 10% foetal calf serum (250 μL, all purchased from Invitrogen); at a cell density of 2.5×10^4 cells/well and maintained at 37° C. in 5% CO2/95% air for 48 h.
At 48 hr, fibroblasts were growth-arrested in serum-free DMEM for 48 hr and then replaced with serum-free DMEM (250 μL), containing Compounds 1 or 37 at concentrations of 0, 0.001, 0.01, 0.1, 1.0 and 10.0 μg/mL (3 wells/concentration/compound) and TGF-β1 (10 ng/ml, Peprotech). Fibroblasts were maintained at 37° C. in 5% CO2/95% air for 72 hr.
At 72 hr, chamber slide wells were washed with PBS (×1, 250 μL) and fixed in 4% paraformaldehyde (100 μL/well) for 10 min. The chamber slide wells were then washed again with PBS (×1, 250 μl), treated with 0.1% Triton X-100 in PBS (100 μL, Sigma) for 5 min and re-washed with PBS (×1, 250 μL). Wells were blocked with 1% BSA in PBS (250 μL, Sigma) for 1 h and washed (×3) in 0.1% BSA/PBS.
Wells were incubated with monoclonal mouse anti-human α-SMA, clone 1A4 (1:100, 150 ul, Sigma) at 4° C. overnight, washed (×6) in 0.1% BSA/PBS and incubated with Alexa Fluor 488 goat anti-mouse IgG antibody (1:1000, 250 μL, Invitrogen), at room temperature for 1 h, under darkness. Chamber slides were washed (×6) in 0.1% BSA/PBS and counterstained with Hoescht 33258 solution for 30 min under darkness (1:2000, 250 μL, Sigma). Chamber were subsequently removed for slides and treated with Fluorsave (Santa Cruz) for 10 min under darkness. Slides were viewed by fluorescence microscopy (Leica Microsystem), with digital images being capturedat ×200 magnification. Digital images were processed using HC Image J Software.

[2] = system: chronic, non-healing wounds; test: Veterinary clinical treatment of non-healing and difficult wounds, 10 pet animals (overall); type: in vivo, dogs, tree kangaroos, spectacled flying fox; details: eight completed cases; open wounds, no dressings
Protocol: Compound 1 has been used to treat to heal difficult wounds in 10 pet (i.e. privately owned and cared for) animals with the aim of improving second intention wound healing
(§1) Seven dogs (Canis lupus familiaris) and one tree kangaroo (Dendrolagus humholzii) with chronic, non-healing wounds that were unresponsive to current veterinary standards-of-care for these indications were treated with Compound 1 by independent veterinarians. A second tree kangaroo and a spectacled flying fox (Pteropus conspicillatus) with wounds unsuited for initial treatment with current standards-of-care were also treated with Compound 1. All cases were managed as open wounds without the use of dressings or other bandaging during the course of treatment with Compound 1 and the subsequent period of wound resolution. Unless stated in individual case studies, no concomitant medications were used over the course of treatments with Compound 1.
Case and treatment notes for each of these patients are summarised below. Note that the return presentation of these animals to the treating veterinarians was often irregular and wound healing outcomes may have occurred well before the return assessment visits.

[3] = system: infected bone wound; infectious vasculitis in the ear; test: Veterinary case studies 8 and 9, tree kangaroo wounds; type: in vivo, Dendrolagus lumholtzi
Protocol: as §1
The patient was treated for 1 month with injectable antibiotics ceftazidime (Fortum) and trimethoprim sulphamethoxazole (TMS). […] Within 10 minutes of the application of Compound 1 gel there was a purulent discharge from the treated area. • On presentation 8 days after the first treatment a purulent discharge was oozing from 2 of the 3 wounds on the leg. The other wound (smallest lesion on the heal) had contracted and commenced healing. A further treatment of 0.15 mL of 5 mg/mL gel formulation of Compound 1 was used to treat each of the two open wounds (one over the ankle joint, the other on the base of the foot pad). A slow IV. infusion of sodium iodide was also given. • A further 15 days later (23 days after initial treatment) several mLs of thick purulent pus was squeezed from the wound on the pad of the foot before forcing 0.15 mL of 5 mg/mL gel formulation of Compound 1 into the drained wound sinus. • One week later there was significant improvement. in the infection. A small piece of bone was removed from the hole in the foot pad. There was no pus evident but there was a serous discharge. A further 0.2 mL. of the Compound 1 gel was applied to each of lesions, one over the ankle, the other underneath the foot. A slow IV infusion of sodium iodide was also delivered. Limb is now weight bearing. but the heal and foot pad is still very firm with inflammation and the animal's gait is very uneven and strongly favouring the undamaged hind leg. • A further 15 days later the wound over the ankle joint had fully closed and hair was growing back. The wound on the heal of the foot pad had contracted to less than 50% of its size at the previous visit and the surrounding skin and tissue is soft, pliable and normal.
Case notes: • The patient presented as a young injured animal found in the wild. • Patient was very weak, dehydrated and anaemic. […] Patient was placed on fluid therapy and medicated with anti-nausea drug maropitant citrate (cerenia) and two injectable antibiotic formulations Tribacteral (trimethoprim, sulfadiazine) and ceftazidime (fortum). • After 9 days on a fluid drip the patient's condition had improved but there was trauma to the right ear and likely infectious vasculitis and gangrene. Surgery was not possible because of significant anaesthetic risk due to the patient's highly compromised condition. Instead, treatment with a gel formulation of Compound 1 was initiated. • Three treatments of 0.1 mL of 5 mg/mL strength Compound 1 gel were applied to the affected area at 7 day intervals. The only concurrent medication during this time was the cephalosporin antibiotics deftazidime (fortum). • At 7 days after the first treatment of Compound 1 gel, a tightly adhering eschar covered the wound surface.

[4] = system: wounds following necrosis and sloughing of spontaneous tumours; test: Resolution of wounds after sloughing of spontaneous tumours treated by intratumoural injection, equine; type: in vivo; details: for Average days from tumour slough to wound closure: Equine
Protocol: Veterinary clinical data on speed of resolution of wounds that formed following necrosis and sloughing of spontaneous tumours that had been treated by intratumoural injection of Compound 1 (30% 1,2 propanediol formulation at either 0.5 or 1.0 mg/mL concentration) in twenty-four companion animals are summarised in Table 17.
Note that all wounds were managed as open wounds and no bandaging, dressings, lotions or concomitant medications were used in any of these cases.

[5] = Case 8, 15 days after the fourth application

SMILES: CC=C(C)C(=O)OC1C(C)C2(O)C(C3OC3(CO)C(O)C3(O)C(=O)C(C)=CC32)C2C(C)(C)C12OC(=O)C(C)CC (stereo not shown) [Compound 1, 12-tigloyl-13-(2-methylbutanoyl)-6,7-epoxy-4,5,9,12,13,20-hexahydroxy-1-tigliaen-3-one]
- differentiation of TGF-β1-treated adult dermal fibroblasts into myofibroblasts ([1]; 0.001 to 10.0 μg/mL, 72 hr): affected differentiation into myofibroblasts in a concentration-dependent manner
- α-SMA stress fibre formation and polygonal cellular morphology (myofibroblast differentiation) ([1]; TGF-β1 10 ng/ml, 72 hr, 0.1 μg/mL): lacked the α-SMA stress fibre formation and the typical polygonal cellular morphology
- myofibroblast morphology ([1]; between 1 and 10 μg/mL): subtle alterations in myofibroblast morphology
- wound resolution [2]: effective wound resolution with minimal scarring
- time to purulent discharge from the treated area ([3]; Case 8, tree kangaroo, infected bone wound, first application 0.1 mL gel 5 mg/mL per lesion): ≤ 10 min
- wound outcome, wound over the ankle joint ([3]; Case 8, 4 applications gel 5 mg/mL, 15 days after the fourth application): fully closed
- limb function [3, 5]: fully weight bearing
- wound on the heal of the foot pad, % of its size at the previous visit [3, 5]: less than 50%
- reduction of wound area ([3]; Case 9, tree kangaroo, ear, 3 x 0.1 mL gel 5 mg/mL at 7 day intervals, 14 days after initial treatment): approximately 50%
- wound status ([3]; Case 9, 25 days): healthy tissue was present over the entire area of the wound
- wound outcome ([3]; Case 9, 67 days): totally resolved and there was full hair coverage over the ear
- No. of horses: Tissue deficit at wound site, Minor ([4]; 5 to 10% tissue deficit across the original wound area): 0
- No. of horses: Tissue deficit at wound site, Nil or minimal ([4]; <5% tissue deficit across the original wound area): 6
- No. of horses: Tissue deficit at wound site, Substantial ([4]; >10% tissue deficit across the original wound area): 0
- Average days from tumour slough to wound closure ([4]; wound size class 0.25 to 9 cm^2, 4 cases): 20 ± 12 days
- Average days from tumour slough to wound closure ([4]; wound size class 9 to 50 cm^2, 2 cases): 53 ± 22 days
- No. of horses: Hair regrowth on wound area, Sparse ([4]; Hair covers <50% of original wound area): 0
- No. of horses: Hair regrowth on wound area, Partial ([4]; Hair covers >50% of original wound area): 1
- No. of horses: Hair regrowth on wound area, Full ([4]; Hair covers >95% of original wound area): 5
- No. of horses: Scarring & skin thickening, Minor ([4]; Localised scar covering <10% of original wound area): 1
- No. of horses: Scarring & skin thickening, Substantial ([4]; Scarring covering >10% of original wound area): 1
- No. of horses: Scarring & skin thickening, Nil or minimal ([4]; Scarring not obvious visually or by touch): 4
- No. of horses: Change in hair colour, No ([4]; healed wound site): 3
- No. of horses: Change in hair colour, Yes ([4]; healed wound site): 3
- No. of horses: Skin pigmentation, Hyperpigmentation ([4]; healed wound site): 1
- No. of horses: Skin pigmentation, Hypopigmentation ([4]; healed wound site): 1
- No. of horses: Skin pigmentation, Normal ([4]; healed wound site): 3
- No. of horses: Skin pigmentation, Patchy ([4]; healed wound site): 1
